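Following 48 hours of exposure in 96-well plates, responses at five concentrations were used to interpolate endpoints linearly. Abbreviation: GI50, concentration required for 50% inhibition of growth.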 Active and inactive are the calls of the source. No stated cut-off is given here; in the data, active = GI50 up to about 1.1 µM and inactive = higher.
How the values were obtained:
Assay in all cases: NCI tumour cell line growth inhibition, 48 h
786-0 = system: 786-0
OVCAR-4 = system: OVCAR-4
SNB-75 = system: SNB-75
MCF7 = system: MCF7
SK-MEL-28 = system: SK-MEL-28
SN12C = system: SN12C
MOLT-4 = system: MOLT-4
A498 = system: A498
MDA-N = system: MDA-N
PC-3 = system: PC-3
NCI-H226 = system: NCI-H226
SF-295 = system: SF-295
EKVX = system: EKVX
KM12 = system: KM12
CCRF-CEM = system: CCRF-CEM
HCT-15 = system: HCT-15
SF-539 = system: SF-539
SR = system: SR
OVCAR-3 = system: OVCAR-3
Malme-3M = system: Malme-3M
HCT-116 = system: HCT-116
MDA-MB-435 = system: MDA-MB-435
NCI-H23 = system: NCI-H23
M14 = system: M14
HOP-62 = system: HOP-62
ACHN = system: ACHN
MDA-MB-231 = system: MDA-MB-231
UACC-257 = system: UACC-257
SNB-19 = system: SNB-19
Hs-578T = system: Hs-578T
SK-MEL-2 = system: SK-MEL-2
LOX IMVI = system: LOX IMVI
IGROV-1 = system: IGROV-1
TK-10 = system: TK-10
DU-145 = system: DU-145
OVCAR-8 = system: OVCAR-8
RPMI-8226 = system: RPMI-8226
UO-31 = system: UO-31
A549 = system: A549
OVCAR-5 = system: OVCAR-5
HT-29 = system: HT-29
K562 = system: K562
UACC-62 = system: UACC-62
SK-MEL-5 = system: SK-MEL-5
NCI/ADR-RES = system: NCI/ADR-RES
U-251 = system: U-251
COLO 205 = system: COLO 205
SF-268 = system: SF-268
SW-620 = system: SW-620
SK-OV-3 = system: SK-OV-3
NCI-H522 = system: NCI-H522
HCC 2998 = system: HCC 2998
NCI-H460 = system: NCI-H460
CAKI-1 = system: CAKI-1
RXF 393 = system: RXF 393
T47D = system: T47D
HL-60 = system: HL-60

## CC(=O)Oc1ccc2c(C)cc(=O)oc2c1OC(C)=O
786-0
  GI50: 37.2 µM (inactive)
OVCAR-4
  GI50: 46.8 µM (inactive)
SNB-75
  GI50: 27 µM (inactive)
MCF7
  GI50: 49.4 µM (inactive)
SK-MEL-28
  GI50: 33.9 µM (inactive)
SN12C
  GI50: 57.8 µM (inactive)
MOLT-4
  GI50: 34.5 µM (inactive)
A498
  GI50: 37.7 µM (inactive)
MDA-N
  GI50: > 100 µM (inactive)
PC-3
  GI50: 34.1 µM (inactive)
NCI-H226
  GI50: 30.6 µM (inactive)
SF-295
  GI50: 47.5 µM (inactive)
EKVX
  GI50: 48 µM (inactive)
KM12
  GI50: 44 µM (inactive)
CCRF-CEM
  GI50: 5.4 µM (inactive)
HCT-15
  GI50: 21.1 µM
SF-539
  GI50: > 100 µM (inactive)
SR
  GI50: 17.3 µM (inactive)
OVCAR-3
  GI50: 40.4 µM (inactive)
Malme-3M
  GI50: 17.6 µM (inactive)
HCT-116
  GI50: 32.7 µM (inactive)
MDA-MB-435
  GI50: 63.4 µM (inactive)
NCI-H23
  GI50: 26.9 µM (inactive)
M14
  GI50: 39.1 µM (inactive)
HOP-62
  GI50: 46.5 µM (inactive)
ACHN
  GI50: 29.1 µM (inactive)
MDA-MB-231
  GI50: 48.9 µM (inactive)
UACC-257
  GI50: 17.7 µM (inactive)
SNB-19
  GI50: 41.3 µM (inactive)
Hs-578T
  GI50: 24.2 µM (inactive)
SK-MEL-2
  GI50: > 100 µM (inactive)
LOX IMVI
  GI50: 22.2 µM (inactive)
IGROV-1
  GI50: 22.3 µM (inactive)
TK-10
  GI50: 24.2 µM (inactive)
DU-145
  GI50: 28.3 µM (inactive)
OVCAR-8
  GI50: 27 µM (inactive)
RPMI-8226
  GI50: 24.5 µM (inactive)
UO-31
  GI50: 26.5 µM (inactive)
A549
  GI50: 38.4 µM (inactive)
OVCAR-5
  GI50: 93.5 µM (inactive)
HT-29
  GI50: 29.9 µM (inactive)
K562
  GI50: 47.8 µM (inactive)
UACC-62
  GI50: 49.1 µM (inactive)
SK-MEL-5
  GI50: 37.8 µM (inactive)
NCI/ADR-RES
  GI50: 24.2 µM (inactive)
U-251
  GI50: 35.2 µM (inactive)
COLO 205
  GI50: 42.8 µM (inactive)
SF-268
  GI50: 25.3 µM (inactive)
SW-620
  GI50: 30.7 µM (inactive)
SK-OV-3
  GI50: > 100 µM (inactive)

## COC(C)(C)C1(O)CC[C@@H](C)CC1=O (stereo partly specified)
OVCAR-4
  GI50: > 100 µM (inactive)
SNB-75
  GI50: > 100 µM (inactive)
MCF7
  GI50: > 100 µM (inactive)
SK-MEL-28
  GI50: > 100 µM (inactive)
SN12C
  GI50: > 100 µM (inactive)
A498
  GI50: > 100 µM (inactive)
SF-295
  GI50: > 100 µM (inactive)
EKVX
  GI50: > 100 µM (inactive)
KM12
  GI50: > 100 µM (inactive)
HCT-15
  GI50: > 100 µM
SF-539
  GI50: > 100 µM (inactive)
Malme-3M
  GI50: > 100 µM (inactive)
HCT-116
  GI50: > 100 µM (inactive)
MDA-MB-435
  GI50: > 100 µM (inactive)
NCI-H23
  GI50: > 100 µM (inactive)
M14
  GI50: > 100 µM (inactive)
HOP-62
  GI50: > 100 µM (inactive)
NCI-H522
  GI50: > 100 µM (inactive)
ACHN
  GI50: > 100 µM (inactive)
UACC-257
  GI50: > 100 µM (inactive)
TK-10
  GI50: > 100 µM (inactive)
DU-145
  GI50: > 100 µM (inactive)
RPMI-8226
  GI50: > 100 µM (inactive)
A549
  GI50: > 100 µM (inactive)
OVCAR-5
  GI50: > 100 µM (inactive)
UACC-62
  GI50: > 100 µM (inactive)
SF-268
  GI50: > 100 µM (inactive)
SW-620
  GI50: > 100 µM (inactive)

## CO[C@@H]1/C=C\C=C(/C)C(=O)NC2=CC(=O)C(NCCN(C)C)=C(C[C@@H](C)C[C@@H](OC)[C@@H](O)[C@H](C)/C=C(\C)[C@H]1OC(N)=O)C2=O
786-0
  GI50: < 0.0204 µM (active)
OVCAR-4
  GI50: 0.841 µM (active)
SN12C
  GI50: < 0.01 µM (active)
MOLT-4
  GI50: 0.0166 µM (active)
MDA-N
  GI50: < 0.01 µM (active)
KM12
  GI50: < 0.01 µM (active)
CCRF-CEM
  GI50: < 0.0144 µM (active)
HCT-15
  GI50: 0.345 µM
Malme-3M
  GI50: < 0.01 µM (active)
HCT-116
  GI50: < 0.0132 µM (active)
MDA-MB-435
  GI50: < 0.01 µM (active)
M14
  GI50: < 0.01 µM (active)
UACC-257
  GI50: 0.0121 µM (active)
SNB-19
  GI50: < 0.0236 µM (active)
HCC 2998
  GI50: < 0.0118 µM (active)
LOX IMVI
  GI50: < 0.01 µM (active)
NCI-H460
  GI50: < 0.01 µM (active)
IGROV-1
  GI50: < 0.01 µM (active)
OVCAR-8
  GI50: < 0.0191 µM (active)
RPMI-8226
  GI50: 0.121 µM (active)
UO-31
  GI50: 0.652 µM (active)
A549
  GI50: < 0.0117 µM (active)
UACC-62
  GI50: < 0.01 µM (active)
U-251
  GI50: < 0.01 µM (active)
COLO 205
  GI50: < 0.01 µM (active)
SK-OV-3
  GI50: 0.0121 µM (active)

## O=C1CCC2CCC1C2 (stereo unspecified)
786-0
  GI50: > 100 µM (inactive)
OVCAR-4
  GI50: > 100 µM (inactive)
SNB-75
  GI50: > 100 µM (inactive)
MCF7
  GI50: > 100 µM (inactive)
SK-MEL-28
  GI50: > 100 µM (inactive)
SN12C
  GI50: > 100 µM (inactive)
MOLT-4
  GI50: > 100 µM (inactive)
A498
  GI50: > 100 µM (inactive)
MDA-N
  GI50: > 100 µM (inactive)
PC-3
  GI50: > 100 µM (inactive)
NCI-H226
  GI50: > 100 µM (inactive)
SF-295
  GI50: > 100 µM (inactive)
KM12
  GI50: > 100 µM (inactive)
CCRF-CEM
  GI50: > 100 µM (inactive)
CAKI-1
  GI50: > 100 µM (inactive)
HCT-15
  GI50: > 100 µM
SF-539
  GI50: > 100 µM (inactive)
OVCAR-3
  GI50: > 100 µM (inactive)
Malme-3M
  GI50: > 100 µM (inactive)
RXF 393
  GI50: 96.4 µM (inactive)
HCT-116
  GI50: > 100 µM (inactive)
MDA-MB-435
  GI50: > 100 µM (inactive)
NCI-H23
  GI50: > 100 µM (inactive)
M14
  GI50: > 100 µM (inactive)
HOP-62
  GI50: > 100 µM (inactive)
ACHN
  GI50: > 100 µM (inactive)
MDA-MB-231
  GI50: > 100 µM (inactive)
UACC-257
  GI50: > 100 µM (inactive)
SNB-19
  GI50: > 100 µM (inactive)
Hs-578T
  GI50: > 100 µM (inactive)
HCC 2998
  GI50: > 100 µM (inactive)
SK-MEL-2
  GI50: > 100 µM (inactive)
LOX IMVI
  GI50: > 100 µM (inactive)
NCI-H460
  GI50: > 100 µM (inactive)
TK-10
  GI50: > 100 µM (inactive)
T47D
  GI50: > 100 µM (inactive)
DU-145
  GI50: > 100 µM (inactive)
OVCAR-8
  GI50: > 100 µM (inactive)
RPMI-8226
  GI50: > 100 µM (inactive)
UO-31
  GI50: > 100 µM (inactive)
HL-60
  GI50: > 100 µM (inactive)
A549
  GI50: > 100 µM (inactive)
OVCAR-5
  GI50: > 100 µM (inactive)
HT-29
  GI50: > 100 µM (inactive)
K562
  GI50: > 100 µM (inactive)
UACC-62
  GI50: > 100 µM (inactive)
SK-MEL-5
  GI50: > 100 µM (inactive)
NCI/ADR-RES
  GI50: > 100 µM (inactive)
U-251
  GI50: > 100 µM (inactive)
COLO 205
  GI50: > 100 µM (inactive)
SF-268
  GI50: > 100 µM (inactive)
SK-OV-3
  GI50: > 100 µM (inactive)
